Measured values reported in US9139585B2 (Merck Sharp & Dohme Corp., priority 2011, dated 2015).
Read-outs that look alike come from different tables or passages of the source.

Legend:
hROMK (hKir1.1) = hROMK (hKir1.1) (Homo sapiens (Human), UniProt P48048); assay: Thallium Flux Assay (ROMK channel functional thallium flux, FLIPR-Tetra); assay type: cell-based
Procedure: Another ROMK functional assay makes use of the ability of thallium to permeate through open ROMK channels and increase the fluorescence of a dye previously loaded into the cells. Under control conditions, cells loaded with dye and exposed to thallium-containing medium display a time-dependent increase in fluorescence, the rate of which depends on number of functional channels. When cells are incubated in the presence of a channel inhibitor, the increase in fluorescence is attenuated in a concentration-dependent manner, and IC50 values of inhibition by compounds can be accurately determined. This assay has been established with cell lines expressing either human, or rat ROMK channels, and operates in 384-well format.
HEK293 cells stably expressing hROMK (hKir1.1) were grown at 37° C. in a 10% CO2 humidified incubator in complete growth media: Dulbecco's Modified Eagle Medium supplemented with non-essential amino acids, Penicillin/Streptomycin/Glutamine, G418 and FBS. At >80% confluency, the media was aspirated from the flask and the sample was rinsed with 10 ml Calcium/Magnesium-free PBS. […] To dislodge the cell, the side of the flask was gently banged with a hand. The cells were triturated completely and then transferred to 25 ml complete media. The sample was then centrifuged at 1,500 rpm for 6 minutes, followed by resuspension in complete growth media and then cell concentration was determined. […] Under ideal growth conditions and appropriate tissue culture practices, this cell line is stable for 40-45 passages.
FluxOR Kit Components (Invitrogen F10017)
• FluxOR™ Reagent (Component A) • FluxOR™ Assay Buffer (Component B)—10× Concentrate • PowerLoad™ Concentrate (Component C)—100× Concentrate • Probenecid (Component D)—Lyophilized sample is kept at −20° C. Water soluble, 100× after solubilization in 1 ml water. […] Store at 4° C. • Thallium sulfate (Tl2SO4) Concentrate (Component G)—50 mM in water. Store at 4° C. • DMSO (dimethyl sulfoxide, Component H)—1 ml (100%) Reagent Preparation— FluxOR Working Solutions • 1000× FluxOR™ Reagent: Reconstitute a vial of component A in 100 μl DMSO; Mix well; Store 10 μl aliquots at −20° C. • 1× FluxOR™ Assay Buffer: Dilute Component B 10-fold with water; Adjust pH to 7.4 with Hepes/NaOH; Filter and store at 4° C. • Probenecid/Assay Buffer: 100 ml of 1× FluxOR™ Assay Buffer; 1 ml of reconstituted component D; Store at 4° C. • Loading Buffer (per microplate): 10 μl 1000× FluxOR™ Reagent; 100 μl component C; 10 ml Probenecid/Assay Buffer • Compound Buffer (per microplate): 20 ml Probenecid/Assay Buffer; 0.3 mM ouabain (10 mM ouabain in water can be stored in amber bottle/aluminum foil at room temperature);
Test compound • 1× FluxOR™ Chloride-Free Buffer: Prepare 1× working solution in water. Can be stored at room temperature • Stimulant Buffer (prepared at 5× final concentration in 1× FluxOR™ Chloride-Free Buffer): 7.5 mM Thallium sulfate and 0.75 mM Potassium sulfate (to give a final assay concentration of 3 mM Thallium/0.3 mM Potassium). Store at 4° C. when not in use. If kept sterile, this solution is good for months. Assay Protocol—
The ROMK channel functional thallium flux assay is performed in 384 wells, using the FLIPR-Tetra instrument. HEK-hKir1.1 cells are seeded in Poly-D-Lysine microplates and kept in a 37° C.-10% CO2 incubator overnight. On the day of the experiment, the growth media is replaced with the FluxOR™ reagent loading buffer and incubated, protected from light, at ambient temperature (23-25° C.) for 90 min. The loading buffer is replaced with assay buffer±test compound followed by 30 min incubation at ambient temperature, where the Thallium/Potassium stimulant is added to the microplate.
• 1. Seed HEK-hKir1.1 cells (50 μl at 20,000 cells/well) in 384-well PDL coated Microplates • 2. Allow cells to adhere overnight in humidified 37° C./10% CO2 incubator • 3. Completely remove cell growth media from microplate and replace with 25 μl loading buffer • 4.

Kir1.1 (ROMK1) = Kir1.1 (ROMK1) (Homo sapiens (Human), UniProt P48048); assay: Electrophysiology Assay (whole cell voltage clamp, IonWorks Quattro); assay type: cell-based
Chain of Kir1.1 (ROMK1) (P48048 whole entry, species assumed): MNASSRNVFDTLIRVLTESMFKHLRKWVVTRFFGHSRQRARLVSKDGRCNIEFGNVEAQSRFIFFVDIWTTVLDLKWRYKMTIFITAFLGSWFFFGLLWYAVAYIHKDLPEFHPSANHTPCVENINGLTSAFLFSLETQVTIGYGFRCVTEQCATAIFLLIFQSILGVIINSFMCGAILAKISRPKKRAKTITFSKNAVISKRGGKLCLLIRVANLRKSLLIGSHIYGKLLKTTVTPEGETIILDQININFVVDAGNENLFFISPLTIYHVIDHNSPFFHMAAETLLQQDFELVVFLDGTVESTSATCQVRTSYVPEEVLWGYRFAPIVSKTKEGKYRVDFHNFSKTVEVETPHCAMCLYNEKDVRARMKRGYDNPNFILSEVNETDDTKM
Description: Several assays may be used to measure functional inhibition of the ROMK channel by compounds of the instant invention. One assay that can be used is an electrophysiology assay that measures the electrical current that is generated as potassium permeates through the channel.
Block of Kir1.1 (ROMK1) currents was examined by whole cell voltage clamp (Hamill et. al. Pfluegers Archives 391:85-100 (1981)) using the IonWorks® Quattro automated electrophysiology platform (Molecular Devices, Sunnyvale, Calif.). Chinese hamster ovary cells stably expressing Kir1.1 channels were maintained in T-75 flasks in cell culture media in a humidified 10% CO2 incubator at 37° C. Prior to an experiment, Kir1.1 expression was induced by overnight incubation with 1 mM sodium butyrate. On the day of the experiment, cells were dissociated with 2.5 ml of Versene™ (Invitrogen 15040-066) for approximately 6 minutes at 37° C. and suspended in 10 ml of bath solution containing (in mM): 150 NaCl, 10 KCl, 2.7 CaCl2, 0.5 MgCl2, 5 HEPES, pH 7.4. After centrifugation, the cell pellet was resuspended in approximately 4.0 ml of bath solution and placed in the IonWorks® instrument. The intracellular solution consisted of (in mM): 80 K gluconate, 40 KCl, 20 KF, 3.2 MgCl2, 3 EGTA, 5 Hepes, pH 7.4. Electrical access to the cytoplasm was achieved by perforation in 0.13 mg/ml amphotericin B for 4 minutes. Amphotericin B (Sigma A-4888) was prepared as a 40 mg/ml solution in DMSO.
Voltage protocols and current recordings were performed using the IonWorks® HT software/hardware system. Currents were sampled at 1 kHz. No correction for liquid junction potentials was used. The test pulse, consisting of a 100 ms step to 0 mV from a holding potential of −70 mV, followed by a 100 ms voltage ramp from −70 mV to +70 mV, was applied before and after a 6 minutes compound incubation period. Test compounds were prepared by diluting DMSO stock solutions into the bath solution at 3× the final concentration and placed in the instrument in 96-well polypropylene plates. Current amplitudes were measured using the IonWorks® software. To assess compound potency, the fractional block during the voltage step to 0 mV was calculated in Microsoft® Excel (Microsoft, Redmond, Calif.), and dose-response curves were fitted with Igor Pro 4.0 (WaveMetrics, Lake Oswego, Oreg.).

[1] = HEK293 cells stably expressing hROMK (hKir1.1), read-out: Thallium Flux Assay IC50
[2] = Chinese hamster ovary cells stably expressing Kir1.1, block during voltage step to 0 mV, read-out: EP Assay IC50
[3] = read-out: Thallium Flux Assay IC50

Chain of hROMK (hKir1.1) (P48048 whole entry): as the sequence (P48048 whole entry, species assumed) above

Row | Structure (SMILES) | IC50 (hROMK (hKir1.1); [1]) [nM] | IC50 (Kir1.1 (ROMK1); [2]) [nM] | other results
1 | Cc1c([C@@H](O)CN2C3CCC2C2CCC3N2CC(O)c2ccc(C#N)cn2)ccc2c1COC2=O (single isomer, unassigned) [Example 5] | 377 | 197 | –
2 | COc1cc(C(O)CN2C3CCC2C2CCC3N2C[C@H](O)c2ccc3c(c2C)COC3=O)ncc1C#N (single isomer, unassigned) [Example 6] | 26 | 21 | –
3 | Cc1c([C@@H](O)CN2C3CCC2C2CCC3N2CC(O)c2ccc(C#N)cn2)ccc2c1COC2=O (single isomer, unassigned) [Example 8] | 915 | – | –
4 | COc1cc(C(O)CN2C3CCC2C2CCC3N2C[C@H](O)c2ccc3c(c2C)COC3=O)ncc1C#N (single isomer, unassigned) [Example 9] | 23 | 23 | –
5 | Cc1c([C@@H](O)CN2CC3CCC2CN3S(=O)(=O)c2ccc(-n3cnnn3)cc2)ccc2c1COC2=O (single isomer, unassigned) [Example 17A] | 508 | 170 | –
6 | Cc1c([C@@H](O)CN2CC3CCC2CN3S(=O)(=O)c2ccc(-n3cnnn3)cc2)ccc2c1COC2=O (single isomer, unassigned) [Example 17B] | 997 | – | –
7 | Cc1c([C@@H](O)CN2C3COCC2CN(CC(O)c2ccc4c(c2)C[C@H](C)OC4=O)C3)ccc2c1COC2=O (single isomer, unassigned) [Example 23A] | – | 2460 | IC50 (hROMK (hKir1.1); Thallium Flux Assay IC50): 461 nM
8 | Cc1c([C@@H](O)CN2C3COCC2CN(CC(O)c2ccc4c(c2)C[C@H](C)OC4=O)C3)ccc2c1COC2=O (single isomer, unassigned) [Example 23B] | – | – | IC50 (hROMK (hKir1.1); Thallium Flux Assay IC50): 40.5 nM; IC50 (Kir1.1 (ROMK1)): 64 nM
9 | Cc1c([C@@H](O)CN2C3COCC2CN(CC(O)c2ccc4c(c2)C[C@@H](C)OC4=O)C3)ccc2c1COC2=O (single isomer, unassigned) [Example 24A] | – | – | IC50 (hROMK (hKir1.1); Thallium Flux Assay IC50): 2040 nM
10 | Cc1c([C@@H](O)CN2C3COCC2CN(CC(O)c2ccc4c(c2)C[C@@H](C)OC4=O)C3)ccc2c1COC2=O (single isomer, unassigned) [Example 24B] | – | – | IC50 (hROMK (hKir1.1); Thallium Flux Assay IC50): 36.1 nM; IC50 (Kir1.1 (ROMK1)): 66 nM
11 | Cc1c([C@@H](O)CN2CCN(CC(O)c3ccc(-n4cnnn4)nc3)CC2)ccc2c1COC2=O (single isomer, unassigned) [Example 34A] | – | – | IC50 (hROMK (hKir1.1); [3]): 296 nM; IC50 (Kir1.1 (ROMK1); read-out: EP Assay IC50): 35 nM
12 | Cc1c([C@@H](O)CN2CCN(CC(O)c3ccc(-n4cnnn4)nc3)CC2)ccc2c1COC2=O (single isomer, unassigned) [Example 34B] | – | – | IC50 (hROMK (hKir1.1); [3]): 147 nM; IC50 (Kir1.1 (ROMK1); read-out: EP Assay IC50): 14 nM
13 | Cc1cc(-n2cnnn2)ncc1[C@@H](O)CN1CCN(C[C@H](O)c2ccc3c(c2C)COC3=O)CC1 (single isomer, unassigned) [Example 35A] | 105 | 29 | –
14 | Cc1cc(-n2cnnn2)ncc1[C@@H](O)CN1CCN(C[C@H](O)c2ccc3c(c2C)COC3=O)CC1 (single isomer, unassigned) [Example 35B] | 278 | 32.5 | –
15 | Cc1c([C@@H](O)CN2CCN(C[C@@H](O)c3ccc4c(c3)CCS4(=O)=O)CC2)ccc2c1COC2=O (single isomer, unassigned) [Example 43B] | 52.4 | – | –
16 | Cc1c([C@@H](O)CN2CCN(C[C@H](O)c3ccc4c(c3C)COC4=O)C3(CC3)C2)ccc2c1COC2=O [Example 4, 5,5′-(1R,1′R)-2,2′-(4,7-Diazaspiro[2.5]octane-4,7-diyl)bis(1-hydroxyethane-2,1-diyl)bis(4-methylisobenzofuran-1(3H)-one)] | – | – | IC50 (hROMK (hKir1.1); Thallium Flux Assay IC50): 635 nM
17 | Cc1c([C@@H](O)CN2C3COCC2CN(CC(O)c2ccc(C#N)cn2)C3)ccc2c1COC2=O (stereo partly drawn) [Example 19, 6-(1-Hydroxy-2-(9-((R)-2-hydroxy-2-(4-methyl-1-oxo-1,3-dihydroisobenzofuran-5-yl)ethyl)-3-oxa-7,9-diazabicyclo[3.3.1]nonan-7-yl)ethyl)nicotinonitrile] | 1620 | – | –
18 | Cc1c([C@@H](O)CN2CCCCN(C[C@H](O)c3ccc4c(c3C)COC4=O)CC2)ccc2c1COC2=O [Example 27, 5,5′-(1R,1′R)-2,2′-(1,4-Diazocane-1,4-diyl)bis(1-hydroxyethane-2,1-diyl)bis(4-methylisobenzofuran-1(3H)-one)] | 697 | – | –
